Tested on: Tetranychus urticae
Assay: Test for confirming effect on Tetranychus urticae (kidney bean leaves in petri dish, sprinkling; survival numbers of next generation)
Assay type: in vivo
Protocol: Test for Confirming Effect on Tetranychus urticae
Ten Tetranychus urticae female imagoes were inoculated on kidney bean leaves placed in each petri dish on the day before chemical solution treatment.
A flowable agent containing the compound A was diluted with water containing RABIDEN 3S diluted 5000 times to prepare chemical solutions A containing the compound A at twice concentrations described in Table 3, respectively.
A preparation containing the compound B or a flowable agent containing the compound B was diluted with water containing RABIDEN 3S diluted 5000 times to prepare chemical solutions B containing the compound B at twice concentrations described in Table 3, respectively.
{Preparations Used in Test Examples and Containing the Compound B}
• Test numbers a and b: hexythiazox: Nissorun wettable powder (produced by Nippon Soda Co., Ltd.) • Test numbers c and d: abamectin: Agri-Mek (produced by Syngenta Japan K.K.) • Test numbers e and f: fenpyroximate: DANITRON flowable (produced by NIHON NOHYAKU CO., LTD.) • Test numbers g and h: acetamiprid: MOSPILAN water soluble powder (produced by Nippon Soda Co., Ltd.) • Test number i: propargite: Omite wettable powder (produced by NIHON NOHYAKU CO., LTD.)
A mixed solution obtained by mixing the chemical solution A and the chemical solution B in an equivalent amount was sprinkled on a petri dish containing kidney bean leaves on which Tetranychus urticae was inoculated at 2 mg per 1 cm^2 with a rotatory sprinkling tower (AB mixture application plot).
The chemical solution A and the chemical solution B were twice diluted with the water containing RABIDEN 3S diluted 5000 times to obtain a chemical solution A′ and a chemical solution B′, respectively.
The chemical solution A′ was sprinkled on another petri dish containing kidney bean leaves on which Tetranychus urticae was inoculated at 2 mg per 1 cm^2 with a rotatory sprinkling tower (A single application plot). The Chemical solution B′ was sprinkled on another petri dish containing kidney bean leaves on which Tetranychus urticae was inoculated at 2 mg per 1 cm^2 with a rotatory sprinkling tower (B single application plot).
Then, the petri dishes on which the chemical solutions were sprinkled were placed in a thermostatic chamber at a temperature of 25° C. and a humidity of 60%. All the imagoes were removed after 3 days elapsed from the sprinkling. Then, the petri dishes from which the imagoes were removed were placed in a thermostatic chamber at a temperature of 25° C. and a humidity of 60%. When 10 days elapsed from the sprinkling, the survival numbers of the next generation were investigated, and the effectivenesses were calculated. Effectiveness (%)=(Cn−Tn)/Cn×100 • Cn: Survival numbers of next generation in non-treatment plot after 10 days • Tn: Survival numbers of next generation in treatment plot after 10 days
To show the degree of a synergistic effect, the “effectiveness expectation” was calculated based on the Colby method. When the effectiveness is higher than the “effectiveness expectation”, it is determined that there is a synergistic effect. Expectation of effectiveness (%)(E)=X+Y−XY/100 • X: measurement of effectiveness in B single application plot (%) • Y: measurement of effectiveness in A single application plot (%)

CCN(Oc1cc(Br)cc(C(F)(F)F)c1)C(=O)NC(C)(C)C(=O)NCC(F)(F)F [Compound (II), 2-{3-[3-bromo-5-(trifluoromethyl)phenoxy]-3-ethylureido}-2-methyl-N-(2,2,2-trifluoroethyl)propanamide] was tested, and the “Effectiveness Found” value (Compound (II) 2.3 ppm, A single application plot, next generation 10 days after sprinkling) was 52% and the “Effectiveness Found” value (Compound (II) 4.7 ppm, A single application plot, next generation 10 days after sprinkling) was 74%.

In the case of C/C(=N\C#N)N(C)Cc1ccc(Cl)nc1 [acetamiprid], the “Effectiveness Found” value (acetamiprid 100 ppm, B single application plot, 10 days after sprinkling) was 5%.

In the case of CCCOc1cc(C(F)(F)F)ccc1O[C@H]1C[C@H]2CCC[C@@H](C1)N2Oc1ccc(C(F)(F)F)cn1 [acynonapyr], the “Effectiveness Found” value (acynonapyr 0.4 ppm, B single application plot, 10 days after sprinkling) was 58%.

In the case of Cc1nn(C)c(Oc2ccccc2)c1C=NOCc1ccc(C(=O)OC(C)(C)C)cc1 [fenpyroximate], the “Effectiveness Found” value (fenpyroximate 2.5 ppm, B single application plot, 10 days after sprinkling) was 67%.

With C[C@@H]1[C@@H](c2ccc(Cl)cc2)SC(=O)N1C(=O)NC1CCCCC1 [hexythiazox] the “Effectiveness Found” value (hexythiazox 1 ppm, B single application plot, 10 days after sprinkling) was 58%.

For C#CCOS(=O)OC1CCCCC1Oc1ccc(C(C)(C)C)cc1 (centres unmarked) [propargite], the “Effectiveness Found” value (propargite 5 ppm, B single application plot, 10 days after sprinkling) was 24%.

abamectin was tested, and the “Effectiveness Found” value (abamectin 0.07 ppm, B single application plot, 10 days after sprinkling) was 42%.
